Measured values reported in patent US6610709B1, “2-n-substituted or unsubstituted-2-amino-5-methylpiperidine-3,4-diols and processes for the preparation thereof” (Zaidan Hojin Biseibutsu Kagaku Kenkyu Kai, priority 1999, dated 2003).

Tests used:
[1] = target: T1, α-L-fucosidase (from bovine liver) (Bos taurus, UniProt Q2KIM0); experiment: α-fucosidase-inhibitory activity assay (Test Example 1); type: biochemical; conditions: substrate p-nitrophenyl α-L-fucopyranoside, citrate-phosphate buffer pH 6.3, 37° C., 60 minutes, read-out: 50% Inhibiory Concentration (IC50) Enzyme A (converted)
T1 construct: a product of Sigma Company, originated from bovine liver; purchased Sigma; host or cells: bovine liver
T1 sequence (Q2KIM0 23-468): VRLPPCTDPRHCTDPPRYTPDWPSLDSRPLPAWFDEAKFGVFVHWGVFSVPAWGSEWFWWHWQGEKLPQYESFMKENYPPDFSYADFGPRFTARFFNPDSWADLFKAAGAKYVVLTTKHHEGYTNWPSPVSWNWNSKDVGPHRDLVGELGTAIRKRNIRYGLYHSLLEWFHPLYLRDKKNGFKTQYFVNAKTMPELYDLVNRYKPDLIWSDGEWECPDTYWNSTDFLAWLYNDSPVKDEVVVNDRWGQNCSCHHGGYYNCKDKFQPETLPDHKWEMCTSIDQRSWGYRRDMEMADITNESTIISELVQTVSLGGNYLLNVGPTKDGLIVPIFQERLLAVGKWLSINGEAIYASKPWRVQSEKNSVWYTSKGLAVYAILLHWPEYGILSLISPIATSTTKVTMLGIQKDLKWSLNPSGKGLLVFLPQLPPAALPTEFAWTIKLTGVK
Procedure: This Test Example is a test example for determining the α-fucosidase-inhibitory activity of the compound of the general formula (I) according to this invention.
Assay of the α-fucosidase-inhibitory activity was conducted according to a modification of the method described in the “Journal of Biological Chemistry”, 252, pp.5194-5200 (1977).
(§1) Thus, 0.5 mL of 0.025M citrate-phosphate buffer (pH 6.3), 0.1 mL of the same buffer containing 1.5 mM p-nitrophenyl α-L-fucopyranoside dissolved therein, and 0.1 mL of either water or an aqueous solution containing as the tested compound any one of the compounds of the formulae (Ia), (Ib), (Ic) and (Id) according to this invention were mixed with each other and pre-incubated in a 96-well titer plate at 37° C. for 10 minutes. After the completion of the pre-incubation, to the pre-incubated mixture was added 0.01 mL of 0.025M citrate-phosphate buffer containing α-L-fucosidase (a product of Sigma Company, originated from bovine liver) dissolved therein, and thereafter the enzymatic reaction was conducted at 37° C. for 60 minutes. After the enzymatic reaction, to the resulting reaction solution was added 1.0 mL of 0.2M glycine-sodium hydroxide buffer (pH 10.5), in order to terminate the enzymatic reaction. Thereafter, the absorbance (designated as “a”) of light at 405 nm of the resulting reaction solution was measured. Concurrently, measurement was made of the absorbance (designated as “b”) of light at 405 nm of the reaction solution as obtained in the control test where the enzymatic reaction was conducted without addition of the test compound. Further, measurements were made of the absorbance (designated as “a′”) and the absorbance (designated as “b′”) of light at 405 nm of the reaction solutions as obtained in the blank tests where the enzymatic reaction had not been conducted in the assay test, and also in the control test for the blank tests, respectively.
(§2) The rate of inhibition to α-L-fucosidase was calculated by the equation: […]

[2] = target: β-D-glucosidase (from almonds); experiment: β-glucosidase-inhibitory activity assay (Test Example 2); type: biochemical, almond; conditions: substrate p-nitrophenyl β-D-glucoside, same manner as Test Example 1
Procedure: as §1, §2
This Test Example is a test example for determining the α-glucosidase or β-glucosidase-inhibitory activity of the compounds according to this invention.
The evaluation of the α- or β-glucosidase-inhibitory activity was conducted according to a modification of the method described in the “Agricultural and Biological Chemistry”, 26, p.203 (1962). Namely, the test was conducted in the same manner as the test for the enzyme-inhibitory activity described in Test Example 1, except that either α-glucosidase originated from yeast, or β-glucosidase originated from almond (both enzymes are products of Sigma Company) was used as the glycosidase enzyme, and that p-nitrophenyl α-D-glucoside or p-nitrophenyl β-D-glucoside was used as the substrate. Furthermore, the enzyme-inhibitory activity was measured in the same manner as in Test Example 1, and the 50% inhibitions of the tested compounds against the enzymes were calculated, respectively.

| SMILES | IC50 [1] | 50% Inhibiory Concentration (IC50) Enzyme C [2] |
| --- | --- | --- |
| CC(=O)N[C@@H]1NC[C@@H](C)[C@@H](O)[C@H]1O [Compound of the Formula (Ia), (2S,3S,4R,5R)-2-acetamido-5-methylpiperidine-3,4-diol] | 584 nM | 2.3 µg/mL |
| C[C@@H]1CN[C@@H](NC(=O)C(F)(F)F)[C@H](O)[C@@H]1O [Compound of the Formula (Ib), (2S,3S,4R,5R)-2-trifluoroacetamido-5-methyl-piperidine-3,4-diol] | 12.4 nM | 55 µg/mL |
| C[C@@H]1CN[C@@H](NC(=O)C(Cl)(Cl)Cl)[C@H](O)[C@@H]1O [Compound of the Formula (Ic), (2S,3S,4R,5R)-2-trichloroacetamido-5-methyl-piperidine-3,4-diol] | 10.3 nM | 50 µg/mL |

Further lines, results first:

| IC50 [1] | 50% Inhibiory Concentration (IC50) Enzyme C [2] | SMILES |
| --- | --- | --- |
| 14.5 nM | 60 µg/mL | C[C@@H]1CN[C@@H](N2C(=O)c3ccccc3C2=O)[C@H](O)[C@@H]1O [Compound of the Formula (Id), (2S,3S,4R,5R)-2-phthalimido-5-methylpiperidine-3,4-diol] |
| 20.5 nM | 50 µg/mL | C[C@@H]1CN[C@@H](N)[C@H](O)[C@@H]1O [Compound of the Formula (Ie), (2R,3S,4R,5R)-2-amino-5-methylpiperidine-3,4-diol] |
